Consider 1 molecule from article PMC11816722, “GATA3-Driven ceRNA Network in Lung Adenocarcinoma Bone Metastasis Progression and Therapeutic Implications” (Cancers, 2025).

pKd: −log10 of the molar value.

The assay concerns the target T1, NPRL3 (Homo sapiens, UniProt Q12980).
T1 sequence (Q12980 1-569): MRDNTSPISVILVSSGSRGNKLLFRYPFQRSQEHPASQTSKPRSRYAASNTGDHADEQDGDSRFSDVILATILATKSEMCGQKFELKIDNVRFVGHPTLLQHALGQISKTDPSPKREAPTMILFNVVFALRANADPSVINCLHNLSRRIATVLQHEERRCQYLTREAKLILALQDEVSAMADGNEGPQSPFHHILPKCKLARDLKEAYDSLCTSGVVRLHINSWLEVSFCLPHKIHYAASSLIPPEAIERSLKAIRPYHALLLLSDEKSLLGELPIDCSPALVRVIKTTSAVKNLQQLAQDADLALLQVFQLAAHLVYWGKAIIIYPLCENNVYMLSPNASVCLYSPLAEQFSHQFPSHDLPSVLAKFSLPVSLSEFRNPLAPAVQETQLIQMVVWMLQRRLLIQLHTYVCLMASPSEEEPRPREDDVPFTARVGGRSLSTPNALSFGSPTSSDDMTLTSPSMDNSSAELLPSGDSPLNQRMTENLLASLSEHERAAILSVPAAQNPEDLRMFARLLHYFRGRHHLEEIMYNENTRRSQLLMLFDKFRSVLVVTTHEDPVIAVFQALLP
Briefly: SPR (Biacore T200, immobilized recombinant NPRL3, steady-state […] fit); supported by DARTS in A549L6 lysate. The class given is binding.

For the molecule `O=c1[nH]nc2c3c(cccc13)N=C(CN1Cc3ccccc3C1)N2` [E7449], the negative-log Kd (pKd) was 4.93.
